Where two headings read alike, the source gives them in different places.
Experiments:
[1] = tested on: HepG-2 human liver cancer cells; assay: MTT colorimetric proliferation / cell survival assay, HepG-2; format: cell-based
Experimental: (§1) A flask with the cancer cells required for the experiment, with an original culture solution discarded, was washed for three times with 2 mL of PBS, 1 mL of pancreatin was added for digestion for 30 s, and 2 mL of a medium was added to terminate the digestion. The cells were transferred to a centrifuge tube and centrifuged at 1000 rpm for 3 min, the supernatant was discarded, and 2 mL of a medium was added and blew 10 times to be mixed uniformly. 10 μL of a cell suspension was taken for cell counting, and spread on a 96-well plate, with 5000 cells per well and 3 duplications for each compound, and then the number of cells and cell wells was calculated. The amount of required cell suspension and the number of cells for medium dilution were calculated by cell counting. 100 μL of medium was plated with 5000 cells per well, pipetted and mixed uniformly, and the cells were inoculated using a volley, placed in an incubator for culture, and marked.
(§2) (2) The cells cultured in step (1) was taken, and discarded with the original medium. Auranofin mother liquor was diluted to a diluent with final concentrations of 0, 0.78125, 1.5625, 3.125, 6.25, 12.5, 25, 50 and 100 μM, and mixed uniformly. A volley (using 3 wells) was used to draw 100 μL of dilution per well, a 96-well plate was tilted, diluents with each concentration were added in sequence to the corresponding 3 marked wells carefully to prevent poking the cells, blown and sucked about 3 times to be mixed uniformly, marked, shaken for 3 times, and put into a CO2 incubator for culture. The above steps were repeated for each auranofin diluent.
(§3) After auranofin was added for culture for 1 hour, the mother liquor of the mercapto compound was diluted into […] and mixed uniformly. A volley (using 3 wells) was used to suck 20 μL of diluent per well, the 96-well plate was tilted, the diluents of different mercapto compounds were added in sequence to the corresponding 3 marked wells carefully to prevent poking the cells, blown and sucked about 3 times to be mixed uniformly, and put back to the incubator to continue culture.
(§4) After different mercapto compounds were added to cells for 24 h, 20 μL of MTT (with a concentration of 5 mg/mL in PBS) per well was added to the 96-well plate by a volley; and incubation was carried out at 37° C. for 4 h. At the end of incubation, the MTT mixture was sucked out, and DMSO was added at 130 μL/well using a volley.
(§5) According to the results of Table 1-2, the killing effect of auranofin in combination with various compounds (with 30% FBS) on HCT116 human colon cancer cells and the killing effect of the auranofin-TGTA (50 μM) in combination with other cancer cells (lung cancer, colon cancer, breast cancer, liver cancer, cervical cancer and gastric cancer cells) were further detected by using the same method as the above.

[2] = tested on: MCF-7 human breast cell cancer cells; assay: MTT colorimetric proliferation / cell survival assay, MCF-7; format: cell-based
Experimental: as §1, §2, §3, §4, §5

[3] = tested on: PC9 human lung cancer cells; assay: MTT cell survival assay, PC9; format: cell-based; conditions: TGTA 50 μM
Experimental: as §1, with “marked. […]” for “marked.”
as §5

PCGR lung cancer cells = assay: MTT cell survival assay, PCGR; format: cell-based; conditions: TGTA 50 μM
Experimental: as §1, with “marked. […]” for “marked.”
as §5

[4] = tested on: Hela human cervical cancer cells; assay: MTT cell survival assay, Hela; format: cell-based; conditions: TGTA 50 μM
Experimental: as §1, with “marked. […]” for “marked.”
as §5

[5] = tested on: MGC803 human gastric cancer cells; assay: MTT cell survival assay, MGC803; format: cell-based; conditions: TGTA 50 μM
Experimental: as §1, with “marked. […]” for “marked.”
as §5

TrxR = assay: Intracellular TrxR activity in HepG2 cells (DTNB reduction); format: cell-based, human; conditions: 0.5 μM auranofin alone
Experimental: HepG2 cells were used as a test subject.
The cells were inoculated into a 6-well plate at 2×10^5 cell/well and incubated for 24 h.
After the incubation, the cell culture medium was replaced with 30% FBS to simulate the high concentration mercapto environment under the normal physiological condition, and used as a control (without adding any reagents). The experimental group was added with 0.5 μM of auranofin for incubation at 37° C. for 30 min, and then added with the mercapto compound (DEDT, β-mercaptoethanol or mercaptoethylamine) for incubation for 30 min (final concentration of DMSO in the system was ≤1%). The incubated cells were washed for 3 times with PBS, added with 100 μL of icy lysis buffer (containing 50 mM of phosphate buffer with pH 7.4, 1 mM EDTA, and 0.10% Triton-X 100), and then lysed on ice for 5 min to collect the cell lysate.
100 μL of buffer (containing 50 mM of potassium phosphate with pH 7.4, 1 mM EDTA, and 0.2 mM NADPH) was added to the collected cell lysate (10 μg protein), 5,5′-dithiobis (2-nitrobenzoic acid) (DTNB, with a final concentration of 3 mM) was added to initiate a reaction, and the activity of TrxR was obtained on the basis of the increased OD value in 10 minutes (OD detection wavelength was 410 nm). Auranofin alone was the positive control sample, and the blank group was the negative control.

[6] = tested on: colon cancer cell HCT116 xenograft; assay: Mouse tumor model, HCT116 xenograft; format: in vivo, BALB/Cann nu (Nude) mice; conditions: HCT116 xenograft in nude mice; intraperitoneal once a day; auranofin 3 mg/kg/day, mercapto compound (β-mercaptoethanol or TGTA) 40 mg/kg/day
Experimental: Establishment of mouse tumor model: 2 million colon cancer cell HCT116 cells suspended in PBS were injected subcutaneously into the dorsal side of 5-7 week-old female BALB/Cann nu (Nude) mice to establish a xenograft model.
When the tumor volume reached about 50 mm^3 (3-4 days after tumor inoculation), mice were randomly divided into a control group and a treatment group, the control group was treated with corn oil, the treatment group was intraperitoneally injected with auranofin (3 mg/kg mouse body weight/day) in combination with various mercapto compounds (β-mercaptoethanol or TGTA, 40 mg/kg mouse body weight/day) once a day. When the tumor volume grew to 1000 mm^3, the mice were anesthetized and then sacrificed by dislocation of the cervical spine.

[7] = tested on: acute lymphocytic leukemia cell P388; conditions: mice inoculated with P388; earlier studies; cited from earlier work
solid tumor models = conditions: several solid tumor models; intraperitoneal injection; follow-up studies; cited from earlier work

CC(=O)OC[C@H]1O[C@@H]([S-])[C@H](OC(C)=O)[C@@H](OC(C)=O)[C@@H]1OC(C)=O.CCP(CC)CC.[Au+] [Auranofin]
Cell survival rate (%) HepG2 ([1]; Liver cancer, TGTA 50 μM): 87 ± 1%
IC50 ([1]; auranofin alone, without BSA/FBS, read-out: IC50 HepG2 Human liver cancer cells): 1300 nM
IC50 ([1]; containing 40 mg/mL BSA, 200 μM of added compound, read-out: IC50 HepG-2 Human liver cancer cells): 16600 nM
IC50 ([1]; under the normal physiological condition, auranofin alone, read-out: IC50 value, proliferation of HepG-2 human liver cancer cells): > 30000 nM
IC50 ([1]; with 10% FBS, mercapto compound added 1 h after auranofin, MTT after 24 h, read-out: IC50 HepG-2 Human liver cancer cells): 3000 nM
IC50 ([2]; auranofin alone, without BSA/FBS, read-out: IC50 MCF-7 Human breast cell cancer cells): 3.4 µM
Cell survival rate (%) MCF-7 ([2]; breast cancer, TGTA 50 μM): 80 ± 2%
IC50 ([2]; containing 40 mg/mL BSA, 200 μM of added compound, read-out: IC50 MCF-7 Human breast cell cancer cells): 39.7 µM
IC50 ([2]; under the normal physiological condition, auranofin alone, read-out: IC50 value, proliferation of MCF-7 human breast cell cancer cells): > 30 µM
IC50 ([2]; with 10% FBS, mercapto compound added 1 h after auranofin, MTT after 24 h, read-out: IC50 MCF-7 Human breast cell cancer cells): 5.7 µM
Cell survival rate (%) PC9 [3]: 93 ± 3%
Cell survival rate (%) PCGR (PCGR lung cancer cells): 37 ± 4%
Cell survival rate (%) Hela [4]: 46 ± 7%
Cell survival rate (%) MGC803 [5]: 79 ± 3%
Activity of TrxR (TrxR; with 30% FBS): 63.6%
Activity of TrxR (TrxR; with 30% FBS, listed as Positive control): 63.6%
Activity of TrxR (TrxR; without FBS, relative to negative control 100%): 15.9%
Activity of TrxR (TrxR; without FBS, relative to negative control 100%, listed as Positive control): 15.9%
growth of tumors [6]: not effectively inhibited
life span of mice [7]: effectively prolong the life span
life span of mice and growth of tumors (solid tumor models): could neither prolong the life span of mice nor inhibit the growth of tumors
